According to patent US10526336B2, “Fused heteroaryl derivatives as orexin receptor antagonists” (Merck Sharp & Dohme Corp., priority 2014, dated 2020):

target: human orexin-2 receptor (Homo sapiens (Human), UniProt O43614); test: FLIPR Ca2+ Flux Assay, orexin-2 receptor antagonism in CHO cells; type: cell-based; settings: CHO cells expressing the human orexin-2 receptor; agonist 70 pM Ala-6,12 orexin-A; read-out: hOX2 FLIPR IC50
Outline: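 CHO cells expressing rat OX1R or human OX2R, Fluo-4AM loaded, given compounds for 5 min, then challenged with 70 pM Ala-6,12 human orexin-A in HBSS/HEPES/BSA/probenecid, pH 7.4. FLIPR calcium fluorescence recorded 5 min; peak height versus agonist-alone gives IC50.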

Chain of human orexin-2 receptor (O43614 whole entry): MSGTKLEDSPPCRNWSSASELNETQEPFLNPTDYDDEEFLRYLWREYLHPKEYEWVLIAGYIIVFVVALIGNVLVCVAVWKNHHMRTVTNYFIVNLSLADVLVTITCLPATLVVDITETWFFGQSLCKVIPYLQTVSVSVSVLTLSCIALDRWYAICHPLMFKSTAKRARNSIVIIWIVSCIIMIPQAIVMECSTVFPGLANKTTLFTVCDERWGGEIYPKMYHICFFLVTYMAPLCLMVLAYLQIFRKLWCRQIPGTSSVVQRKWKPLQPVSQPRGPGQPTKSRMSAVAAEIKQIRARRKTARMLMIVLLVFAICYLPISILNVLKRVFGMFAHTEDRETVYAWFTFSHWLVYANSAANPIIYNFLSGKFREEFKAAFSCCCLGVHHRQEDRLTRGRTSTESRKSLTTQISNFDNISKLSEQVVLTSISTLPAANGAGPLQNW

`C[C@@H]1CC[C@@H](Oc2nccn3c(C(F)(F)F)cnc23)CN1C(=O)c1cccnc1OCC(F)F` [Example 64, (2-(2,2-difluoroethoxy)pyridin-3-yl)((2R,5R)-2-methyl-5-((3-(trifluoromethyl)imidazo [1,2-α]pyrazin-8-yl)oxy)piperidin-1-yl)methanone] and `C[C@@H]1CC[C@@H](Oc2nccn3c(C(F)(F)F)cnc23)CN1C(=O)c1cccnc1-n1cccn1` [Example 65, (2-(1H-pyrazol-1-yl)pyridin-3-yl) ((2R,5R)-2-methyl-5-((3-(trifluoromethyl)imidazo [1,2-α]pyrazin-8-yl)oxy)piperidin-1-yl)methanone] are within 1.5-fold of each other in IC50: 0.0174 µM for the first, 0.024 µM for the second.

`C[C@@H]1CC[C@@H](Oc2nccn3c(C(F)(F)F)cnc23)CN1C(=O)c1ccccc1-c1ncccn1` [Example 66, ((2R,5R)-2-methyl-5-((3-(trifluoromethyl)imidazo[1,2-a]pyrazin-8-yl)oxy)piperidin-1-yl)(2-(pyrimidin-2-yl)phenyl)methanone] and `C[C@@H]1CC[C@@H](Oc2nccn3nccc23)CN1C(=O)c1ccccc1-c1ncccn1` [Example 85, ((2R,5R)-2-methyl-5-(pyrazolo[1,5-a]pyrazin-4-yloxy)piperidin-1-yl)(2-(pyrimidin-2-yl)phenyl)methanone] are within 1.5-fold of each other in IC50: 0.0149 µM for the first, 0.0155 µM for the second.

Compared with `C[C@@H]1CC[C@@H](Oc2nccn3c(C(O)C(F)F)cnc23)CN1C(=O)c1ccccc1-n1nccn1` (stereo partly drawn) [Example 67, (2-(2H-1,2,3-triazol-2-yl)phenyl)((2R,5R)-5-((3-(2,2-difluoro-1-hydroxyethyl)imidazo[1,2-a]pyrazin-8-yl)oxy)-2-methylpiperidin-1-yl)methanone], `CC(O)c1cnc2c(O[C@@H]3CC[C@@H](C)N(C(=O)c4ccccc4-n4nccn4)C3)nccn12` (stereo partly drawn) [Example 68, (2-(2H-1,2,3-triazol-2-yl)phenyl)((2R,5R)-5-((3-(1-hydroxyethyl)imidazo[1,2-a]pyrazin-8-yl)oxy)-2-methylpiperidin-1-yl)methanone] is 1.6-fold lower in IC50: 0.182 µM for the first, 0.115 µM for the second.

Compared with `C[C@@H]1CC[C@@H](Oc2nccn3nccc23)CN1C(=O)c1ccccc1-n1nccn1` [Example 69, (2-(2H-1,2,3-triazol-2-yl)phenyl)((2R,5R)-2-methyl-5-(pyrazolo[1,5-a]pyrazin-4-yloxy)piperidin-1-yl)methanone], `C[C@@H]1CC[C@@H](Oc2nccn3nccc23)CN1C(=O)c1ccc(F)cc1-n1nccn1` [Example 73, (4-fluoro-2-(2H-1,2,3-triazol-2-yl)phenyl)((2R,5R)-2-methyl-5-(pyrazolo[1,5-α]pyrazin-4-yloxy)piperidin-1-yl)methanone] is 1.9-fold lower in IC50: 0.0268 µM for the first, 0.014 µM for the second.

First: C[C@@H]1CC[C@@H](Oc2nccn3nccc23)CN1C(=O)c1ccsc1-n1nccn1 [Example 70, (2-(2H-1,2,3-triazol-2-yl)thiophen-3-yl)((2R,5R)-2-methyl-5-(pyrazolo[1,5-a]pyrazin-4-yloxy)piperidin-1-yl)methanone]
Second: C[C@@H]1CC[C@@H](Oc2nccn3nccc23)CN1C(=O)c1cscc1-n1nccn1 [Example 71, (4-(2H-1,2,3-triazol-2-yl)thiophen-3-yl)((2R,5R)-2-methyl-5-(pyrazolo[1,5-α]pyrazin-4-yloxy)piperidin-1-yl)methanone]
The IC50 of the first is 1.6-fold lower: 0.0098 µM for the first, 0.016 µM for the second.

Compared with `C[C@@H]1CC[C@@H](Oc2nccn3nccc23)CN1C(=O)c1ccccc1C1(C#N)CC1` [Example 72, 1-(2-((2R,5R)-2-methyl-5-(pyrazolo[1,5-α]pyrazin-4-yloxy)piperidine-1-carbonyl)phenyl) cyclopropanecarbonitrile], `CCOc1ccccc1C(=O)N1C[C@H](Oc2nccn3nccc23)CC[C@H]1C` [Example 81, (2-ethoxyphenyl)((2R,5R)-2-methyl-5-(pyrazolo[1,5-α]pyrazin-4-yloxy)piperidin-1-yl)methanone] is 3.6-fold higher in IC50: 0.0143 µM for the first, 0.0519 µM for the second. The first is the more potent here.

Going from `C[C@@H]1CC[C@@H](Oc2nccn3nccc23)CN1C(=O)c1cscc1-c1ncccn1` [Example 74, ((2R,5R)-2-methyl-5-(pyrazolo[1,5-α]pyrazin-4-yloxy)piperidin-1-yl)(4-(pyrimidin-2-yl)thiophen-3-yl) methanone] to `C[C@@H]1CC[C@@H](Oc2nccn3nccc23)CN1C(=O)c1ccsc1-c1ncccn1` [Example 75, ((2R,5R)-2-methyl-5-(pyrazolo[1,5-α]pyrazin-4-yloxy)piperidin-1-yl) (2-(pyrimidin-2-yl)thiophen-3-yl) methanone], the IC50 falls from 0.0344 µM to 0.0206 µM (1.7-fold). The second is the more potent here.

`C[C@@H]1CC[C@@H](Oc2nccn3nccc23)CN1C(=O)c1ccccc1-n1ncnn1` [Example 76, (2-(2H-tetrazol-2-yl)phenyl)((2R,5R)-2-methyl-5-(pyrazolo[1,5-α]pyrazin-4-yloxy)piperidin-1-yl)methanone] and `CCCc1ccccc1C(=O)N1C[C@H](Oc2nccn3nccc23)CC[C@H]1C` [Example 82, ((2R,5R)-2-methyl-5-(pyrazolo [1,5-α]pyrazin-4-yloxy)piperidin-1-yl) (2-propylphenyl)methanone] are within 1.5-fold of each other in IC50: 0.0278 µM for the first, 0.0339 µM for the second.

First: C[C@@H]1CC[C@@H](Oc2nccn3ccnc23)CN1C(=O)c1ccccc1CS(C)(=O)=O [Example 77, ((2R,5R)-5-(imidazo[1,2-α]pyrazin-8-yloxy)-2-methylpiperidin-1-yl)(2-((methylsulfonyl)methyl)phenyl) methanone]
Second: COC(=O)c1ccccc1C(=O)N1C[C@H](Oc2nccn3nccc23)CC[C@H]1C [Example 79, methyl 2-((2R,5R)-2-methyl-5-(pyrazolo[1,5-α]pyrazin-4-yloxy)piperidine-1-carbonyl)benzoate]
The IC50 of the first is 1.6-fold lower: 0.0279 µM for the first, 0.0442 µM for the second.

First: C[C@@H]1CC[C@@H](Oc2nccn3nccc23)CN1C(=O)c1nccnc1-c1ccccn1 [Example 78, ((2R,5R)-2-methyl-5-(pyrazolo[1,5-α]pyrazin-4-yloxy)piperidin-1-yl)(3-(pyridin-2-yl)pyrazin-2-yl)methanone]
Second: C[C@@H]1CC[C@@H](Oc2nccn3nccc23)CN1C(=O)c1nccnc1-n1cccn1 [Example 80, (3-(1H-pyrazol-1-yl)pyrazin-2-yl)((2R,5R)-2-methyl-5-(pyrazolo[1,5-α]pyrazin-4-yloxy)piperidin-1-yl)methanone]
The IC50 of the first is 1.9-fold higher: 0.0591 µM for the first, 0.0317 µM for the second.

`CC(C)Oc1ncccc1C(=O)N1C[C@H](Oc2nccn3nccc23)CC[C@H]1C` [Example 83, (2-isopropoxypyridin-3-yl)((2R,5R)-2-methyl-5-(pyrazolo[1,5-α]pyrazin-4-yloxy)piperidin-1-yl)methanone] and `CC(C)Oc1ccccc1C(=O)N1C[C@H](Oc2nccn3nccc23)CC[C@H]1C` [Example 84, (2-isopropoxyphenyl)((2R,5R)-2-methyl-5-(pyrazolo[1,5-α]pyrazin-4-yloxy)piperidin-1-yl)methanone] are within 1.5-fold of each other in IC50: 0.0491 µM for the first, 0.0435 µM for the second.

Compared with `C[C@@H]1CC[C@@H](Nc2nccn3nccc23)CN1C(=O)c1ccccc1-n1nccn1` [Example 86, (2-(2H-1,2,3-triazol-2-yl)phenyl)((2R,5R)-2-methyl-5-(pyrazolo[1,5-a]pyrazin-4-ylamino)piperidin-1-yl)methanone], `C[C@@H]1CC[C@@H](Oc2nccn3ncc(Br)c23)CN1C(=O)c1ccccc1-n1nccn1` [Example 88, (2-(2H-1,2,3-triazol-2-yl)phenyl)((2R,5R)-5-((3-bromopyrazolo[1,5-a]pyrazin-4-yl)oxy)-2-methylpiperidin-1-yl)methanone] is 2.8-fold lower in IC50: 0.0205 µM for the first, 0.0073 µM for the second. The second is the more potent here.
